Here are results for 26 compounds from ChEMBL document CHEMBL1201862, “PubChem BioAssay data set” (2004).

What all share (experiment): NCI anticancer screen, dose series, 48 h
The test system of experiment [1] is LXFL 529.
Experiment [2] has as its system DLD-1.
The subject of experiment [3] is M19-MEL.
Experiment [4] concerns KM-20L2.
Experiment [5] relates to SNB-78.
For experiment [6], the system named is DMS-114.
Experiment [7] deals with HOP-18.
Experiment [8] has as its system XF498.
Experiment [9] deals with RXF 631.

The structures appear in SMILES notation.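 Assay format: 96-well plates, 48-hour exposure. GI50 marks 50% less growth.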 Calls of active or inactive are those of the source. Cut-off read from the data, not from the text of the source: active = GI50 up to about 1.1 µM and inactive = higher.

On to `COc1ccc(/C=C/C(=O)c2c(-c3ccccc3)nn(C)c(=O)c2N2CC2C)cc1` (configuration not stated), for which the GI50 is 25.1 µM (inactive) in experiment [1]; 26.1 µM (inactive) in experiment [2]; 49.9 µM (inactive) in experiment [3]; 23.9 µM (inactive) in experiment [4]; 30.1 µM (inactive) in experiment [5]; 24.7 µM (inactive) in experiment [6]. Further, the GI50 in experiment [7] is 27.5 µM (inactive).

Regarding `O=C1OC(=O)C2C3CCC(O3)C12` (configuration not stated), the GI50 in experiment [1], in experiment [2], in [3], in experiment [5], in experiment [6] and in experiment [7] was > 100 µM (inactive) each time. In addition, the GI50 in experiment [8] is > 100 µM (inactive).

Consider `COC(=O)C(CCCC1(c2ccccc2)OCCO1)C(C)=O` (configuration not stated), for which the GI50 in [1], in experiment [2], in experiment [3], in [9], in experiment [4] and in experiment [5] was > 100 µM (inactive) in each case. The GI50 in [7] and in experiment [8] was > 100 µM (inactive) each time.

For the compound `Nc1nc(N)c(N=O)c(Nc2ccc(Br)cc2)n1`, the GI50 in [1] is 15.3 µM (inactive); in experiment [2], 10.4 µM (inactive); in experiment [3], 30.5 µM (inactive); in experiment [4], 25.3 µM (inactive); in [5], 41.5 µM (inactive); in experiment [6] it was 21.8 µM (inactive). For the same compound, the GI50 in experiment [7] is 11.2 µM (inactive); in experiment [8], 18.8 µM (inactive).

As for `Cc1cc2c(cc1C)[n+]([O-])c(-c1c(Cl)cccc1Cl)c(N)[n+]2[O-]`, the GI50 in experiment [1] is 31.6 µM (inactive); in experiment [2], 30.7 µM (inactive); in experiment [3], 34.9 µM (inactive); in [9], 18.2 µM (inactive); in experiment [4], 40 µM (inactive); in experiment [5], 43.9 µM (inactive). In addition, the figures for the GI50 in experiment [6] and in experiment [7] were 22.6 µM (inactive) and 18.9 µM (inactive), respectively.

Regarding `COc1cc(C(=O)NC2CCc3cc(OC)c(OC)c(OC)c3-c3ccc(OC)c(=O)cc32)cc(OC)c1OC` (configuration not stated), the GI50 is 0.0272 µM (active) in experiment [1]; 0.265 µM (active) in [2]; 0.0577 µM (active) in experiment [3]; 0.0817 µM (active) in [4]; 0.0232 µM (active) in experiment [5]; 0.0233 µM (active) in experiment [6]. Further, the GI50 in experiment [7] is > 29.4 µM (inactive); in [8] it was 0.15 µM (active).

Consider `C/C=C(/I)CBr`, for which the GI50 in experiment [1] was 13.7 µM (inactive); in [2] it was 15.4 µM (inactive); in experiment [3], 14.5 µM (inactive); in experiment [9], 15.3 µM (inactive); in experiment [4], 29.5 µM (inactive); in experiment [5] it was 29 µM (inactive). The values for the GI50 in [6] and in experiment [8] were 12.6 µM (inactive) and 13.5 µM (inactive), respectively.

For the compound `O=C(O)CCC(O)=C1S(=O)(=O)OCCOS1(=O)=O`, the GI50 in experiment [1], in experiment [2], in [3], in experiment [4], in experiment [5] and in experiment [6] was > 100 µM (inactive) throughout. In experiment [7], the GI50 is > 100 µM (inactive).

For the compound `O=C(c1ccc(Cl)cc1)c1ccc(OCC(=O)N2CCN(c3ccccc3)CC2)cc1`, the GI50 in experiment [1] was 52.7 µM (inactive); in [2], > 100 µM (inactive); in experiment [3], > 100 µM (inactive); in experiment [4], > 100 µM (inactive); in experiment [5], 56.4 µM (inactive); in [6], 33.2 µM (inactive). Moreover, the GI50 in experiment [7] and in [8] was > 100 µM (inactive) each time.

Regarding `COC1OC(C)C(OC(=O)C(C)(C)C)C(C)(O)C1O` (configuration not stated), the GI50 in [1] was > 100 µM (inactive); in experiment [2] it was > 100 µM (inactive); in experiment [3] it was > 100 µM (inactive); in [4] it was > 100 µM (inactive); in experiment [5] it was 81.5 µM (inactive); in [7] it was > 100 µM (inactive). Besides, in [8], the GI50 is > 100 µM (inactive).

Regarding `CCOC(=O)NC(=O)c1cn(CCN2CCN(C(=O)NCCCCCCNC(=O)N3CCN(CCn4cc(C(=O)NC(=O)OCC)c(=O)[nH]c4=O)CC3)CC2)c(=O)[nH]c1=O`, the GI50 in [1], in experiment [3], in experiment [9], in experiment [4], in experiment [5] and in experiment [6] was > 100 µM (inactive) throughout. For the same compound, the GI50 in [7] and in [8] was > 100 µM (inactive) each time.

Turning to `C=CCOC(C)n1c(C)cc(=O)n(C(C)OCC=C)c1=O` (configuration not stated), the GI50 in experiment [1], in experiment [2], in experiment [3], in experiment [4], in experiment [5] and in experiment [6] was > 100 µM (inactive) each time. In addition, the GI50 in experiment [7] is > 100 µM (inactive).

In the case of `Cc1nc2c(n1CC(C)C)C(=O)c1ccccc1C2=O`, the GI50 in experiment [1] is 42.6 µM (inactive); in experiment [2] it was 36.6 µM (inactive); in experiment [3], 15.7 µM (inactive); in experiment [4], 35.6 µM (inactive); in [5], 61.9 µM (inactive); in experiment [8], 33.3 µM (inactive).

For `CC(=O)OC1=CC(n2cc(F)c(=O)[nH]c2=O)OC(C)C1=O` (configuration not stated), the GI50 in experiment [1] was > 100 µM (inactive); in experiment [2] it was 97.3 µM (inactive); in [3] it was 90.8 µM (inactive); in [5], > 100 µM (inactive); in experiment [6] it was 99.3 µM (inactive); in [7], > 100 µM (inactive). For the same compound, the GI50 in [8] is > 100 µM (inactive).

`COc1ccc(C(=O)C(c2ccc(OC)cc2)C2(O)C(=O)Nc3c(Cl)cc(Cl)cc32)cc1` (configuration not stated): the GI50 is 15 µM (inactive) in experiment [1]; 19.2 µM (inactive) in experiment [2]; 21.1 µM (inactive) in experiment [4]; 18.3 µM (inactive) in experiment [5]; 18.4 µM (inactive) in [6]; 20.1 µM (inactive) in experiment [7]. Moreover, the GI50 in experiment [8] was 22.4 µM (inactive).

Consider `Cc1c(C(=O)NCCO)[n+]([O-])c2cc(Cl)ccc2[n+]1[O-]`, for which the GI50 in experiment [1], in experiment [2], in experiment [3], in experiment [4], in experiment [5] and in experiment [6] was > 100 µM (inactive) in each case. In addition, the GI50 in experiment [7] was > 100 µM (inactive).

As to `CCOC(=O)c1ncn2c1[nH]c(=O)c1ccccc12`, the GI50 in [1], in experiment [3], in experiment [4], in [5], in experiment [6] and in experiment [8] was > 100 µM (inactive) throughout.

As for `CS/C(=N\C(=S)Nc1ccccc1)Nc1ccccc1`, the GI50 was 11 µM (inactive) in [3], 31 µM (inactive) in [4], 40.3 µM (inactive) in [5] and 0.743 µM (active) in [6].

Regarding `OC(c1ccccn1)C1CNc2ccccc21` (configuration not stated), the GI50 in experiment [1], in [2], in [3], in experiment [4], in experiment [5] and in experiment [6] was > 100 µM (inactive) each time. Moreover, the GI50 in [8] is > 100 µM (inactive).

For `O=C1C=C(c2c(O)ccc3ccccc23)c2cc(O)ccc2C1=O`, the GI50 in experiment [1] was 6.4 µM (inactive); in [2] it was 16.9 µM (inactive); in [3] it was 3.33 µM (inactive); in experiment [4] it was 20 µM (inactive); in experiment [5], 19.2 µM (inactive); in [6], 6.14 µM (inactive). Moreover, the GI50 in [7] was 26.1 µM (inactive); in [8], 11.1 µM (inactive).

Take `CC(C(=O)n1c2ccccc2c2ccccc21)N(c1ccccc1)c1ccccc1` (configuration not stated): the GI50 in experiment [1] was 14.4 µM (inactive); in [2] it was 17.8 µM (inactive); in [3], 18.5 µM (inactive); in experiment [4] it was 18.9 µM (inactive); in [5], 15.6 µM (inactive); in experiment [6] it was 17.4 µM (inactive).

Consider `CC[C@](O)(C(=O)O)c1cc2n(c(=O)c1CO)Cc1cc3ccccc3nc1-2`, for which the GI50 in [1] was 0.692 µM (active); in [3] it was 0.0336 µM (active); in [9] it was 0.084 µM (active); in experiment [4], 0.0535 µM (active); in experiment [6], 0.025 µM (active); in experiment [7], 0.0436 µM (active). Moreover, the GI50 in experiment [8] was 0.0968 µM (active).

As to `Cc1ccc(C)c(N2C(=O)C(=O)C(c3nc4ccccc4o3)/C(=N/N)C2=O)c1` (configuration not stated), the GI50 in [1], in experiment [2], in [3], in experiment [4], in [5] and in [6] was > 100 µM (inactive) throughout. Besides, the GI50 in [7] was > 100 µM (inactive); in [8] it was 47.6 µM (inactive).

Consider `COc1ccc(NS(=O)(=O)c2ccc(/N=C3\C=C(Nc4ccc(S(=O)(=O)Nc5ccc(OC)nn5)cc4)C(=O)c4ccccc43)cc2)nn1`, for which the GI50 in [1] was 22.2 µM (inactive); in experiment [2], 18.5 µM (inactive); in experiment [3], 16.9 µM (inactive); in experiment [4], 17.9 µM (inactive); in experiment [5], 57 µM (inactive); in [6], 26.5 µM (inactive). The values for the GI50 in experiment [7] and in experiment [8] were 16 µM (inactive) and 22.6 µM (inactive), respectively.

For `COc1cc(/C=C\c2ccc(OC(C)=O)cc2)cc(OC)c1OC`, the GI50 in [1] was 6.1 µM (inactive); in experiment [2], 3.99 µM (inactive); in experiment [3], 6.4 µM (inactive); in experiment [9], 17.7 µM (inactive); in [4], 25.9 µM (inactive); in [5], 5.62 µM (inactive). The GI50 in experiment [6] was 3.33 µM (inactive); in experiment [8], 3.39 µM (inactive).

As to `O=C1OC(CC(=O)c2ccccc2Cl)C(Cl)=C1Cl` (configuration not stated), the GI50 in experiment [1] was > 100 µM (inactive); in experiment [2], > 100 µM (inactive); in [3] it was > 100 µM (inactive); in experiment [9], 62.4 µM (inactive); in experiment [5], 33 µM (inactive); in [6], > 100 µM (inactive). Besides, the GI50 in experiment [7] is > 100 µM (inactive).
